The IC50 is the concentration at which inhibition is half-maximal. Lower therefore signals higher potency.

human, KCNT1, sequence (Q5JUK3 whole entry): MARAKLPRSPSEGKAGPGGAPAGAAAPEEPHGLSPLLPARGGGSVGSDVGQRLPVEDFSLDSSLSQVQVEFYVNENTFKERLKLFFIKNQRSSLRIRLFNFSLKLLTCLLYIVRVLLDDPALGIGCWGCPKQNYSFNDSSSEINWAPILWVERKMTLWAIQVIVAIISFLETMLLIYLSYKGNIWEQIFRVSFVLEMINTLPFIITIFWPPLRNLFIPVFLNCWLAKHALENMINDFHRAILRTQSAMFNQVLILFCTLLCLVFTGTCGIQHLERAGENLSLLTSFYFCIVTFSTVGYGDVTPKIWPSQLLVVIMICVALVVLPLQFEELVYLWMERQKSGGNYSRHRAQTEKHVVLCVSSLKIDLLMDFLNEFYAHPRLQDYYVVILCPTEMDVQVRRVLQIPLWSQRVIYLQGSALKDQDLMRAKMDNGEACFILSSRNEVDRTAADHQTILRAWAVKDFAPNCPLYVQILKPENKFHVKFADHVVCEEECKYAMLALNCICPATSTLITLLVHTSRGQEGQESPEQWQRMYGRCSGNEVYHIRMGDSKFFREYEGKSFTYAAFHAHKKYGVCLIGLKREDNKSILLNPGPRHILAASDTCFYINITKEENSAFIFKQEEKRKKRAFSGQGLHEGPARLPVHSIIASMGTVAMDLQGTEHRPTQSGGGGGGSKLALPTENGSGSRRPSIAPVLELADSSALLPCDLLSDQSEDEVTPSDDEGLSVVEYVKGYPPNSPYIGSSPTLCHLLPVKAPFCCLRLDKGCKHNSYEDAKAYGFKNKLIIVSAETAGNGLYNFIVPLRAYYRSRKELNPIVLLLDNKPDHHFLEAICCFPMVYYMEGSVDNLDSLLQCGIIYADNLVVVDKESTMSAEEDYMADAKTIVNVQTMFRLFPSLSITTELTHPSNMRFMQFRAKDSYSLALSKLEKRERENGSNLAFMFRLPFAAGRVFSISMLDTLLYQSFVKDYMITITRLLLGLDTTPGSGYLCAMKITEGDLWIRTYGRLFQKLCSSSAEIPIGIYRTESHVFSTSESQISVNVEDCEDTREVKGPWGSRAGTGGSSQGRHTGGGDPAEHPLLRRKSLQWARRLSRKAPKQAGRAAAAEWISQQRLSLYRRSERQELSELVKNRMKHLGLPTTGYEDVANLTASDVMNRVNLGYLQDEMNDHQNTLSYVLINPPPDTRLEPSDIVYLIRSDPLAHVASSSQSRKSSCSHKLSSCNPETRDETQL

The assay deals with human, KCNT1 (Homo sapiens (Human), UniProt Q5JUK3). In words: FLIPR Tl/K Flux Assay. The class given is cell-based. To be noted: HEK293 cells stably expressing human KCNT1; Tl+ flux stimulated with EC80 of agonist Loxapine. The procedure, abridged:
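HEK293 cells stably expressing human KCNT1 were loaded with FLIPR potassium dye in HEPES/HBSS pH 7.4 with 5 mM probenecid, 1 h at 25 °C, then given test compound for 30 min at 25 °C. Tl+ flux was triggered with chloride-free buffer containing Tl+ and EC80 loxapine and read 160 s. IC50 came from Hill fits of % inhibition.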
In turn, `Cn1nc(C(F)(F)F)cc1C(=O)N[C@H]1CC(C)(C)Cn2nc(-c3ccnc(C(F)(F)F)c3)cc21` [Compound I-219a, (S)—N-(6,6-Dimethyl-2-(2-(trifluoromethyl)pyridin-4-yl)-4,5,6,7-tetrahydropyrazolo[1,5-a]pyridin-4-yl)-1-methyl-3-(trifluoromethyl)-1H-pyrazole-5-carboxamide] gave an IC50 of over 1000 nM.
`Cc1cccc(C(=O)N[C@H]2CCCc3cnc(-c4ccnc(C(F)(F)F)c4)cc32)c1` [Compound I-394a] had an IC50 of 250 to 500 nM.
The same measure for `CCOc1cc(C(=O)N[C@H]2CCn3nc(-c4ccnc(C(F)(F)F)c4)cc32)ccn1` [Compound I-264a]: under 250 nM; for `Cn1nc(C(F)(F)F)cc1C(=O)N[C@@H]1CCCn2nc(-c3ccnc(C(F)(F)F)c3)cc21` [Compound I-42b, (R)-1-Methyl-3-(trifluoromethyl)-N-(2-(2-(trifluoromethyl)pyridin-4-yl)-4,5,6,7-tetrahydropyrazolo[1,5-a]pyridin-4-yl)-1H-pyrazole-5-carboxamide]: over 1000 nM; for `Cn1nc(C(F)(F)F)nc1C(=O)N[C@H]1CCCn2nc(-c3cc(C(F)(F)F)ncc3F)cc21` [Compound I-203a, (S)-N-(2-(5-Fluoro-2-(trifluoromethyl)pyridin-4-yl)-4,5,6,7-tetrahydropyrazolo[1,5-a]pyridin-4-yl)-1-methyl-3-(trifluoromethyl)-1H-1,2,4-triazole-5-carboxamide]: under 250 nM.
To `Cn1cc(C(=O)N[C@H]2CCCn3nc(-c4ccnc(C(F)(F)F)c4)cc32)c(C(F)F)n1` [Compound I-415a] belongs under 250 nM; to `CC(C)c1cc(-c2cc3n(n2)CCC[C@@H]3NC(=O)c2cc(C(F)(F)F)nn2C)ccn1` [Compound I-429a], under 250 nM; to `COc1cc(-c2cc3n(n2)CCC[C@@H]3NC(=O)c2cccc(C(F)(F)F)n2)ccn1` [Compound I-356a], 250 to 500 nM.
The same measure for `Cn1nc(C(F)(F)F)cc1C(=O)N[C@H]1CCCn2nc(-c3ccnc(OC(F)(F)F)c3)cc21` [Compound I-391a]: under 250 nM.
Take `Cn1nc(C(F)(F)F)cc1C(=O)N[C@H]1CCCn2nc(-c3cc(C(F)(F)F)ncc3F)cc21` [Compound I-209a, (S)-N-(2-(5-Fluoro-2-(trifluoromethyl)pyridin-4-yl)-4,5,6,7-tetrahydropyrazolo[1,5-a]pyridin-4-yl)-1-methyl-3-(trifluoromethyl)-1H-pyrazole-5-carboxamide]: the IC50 is under 250 nM.
To `O=C(N[C@H]1CCCn2nc(-c3ccnc(C(F)(F)F)c3)cc21)c1ccnc(OC(F)(F)F)c1` [Compound I-213a, (S)-2-(Trifluoromethoxy)-N-(2-(2-(trifluoromethyl)pyridin-4-yl)-4,5,6,7-tetrahydropyrazolo[1,5-a]pyridin-4-yl)isonicotinamide] belongs under 250 nM; to `Cn1nc(C(F)(F)F)cc1C(=O)N[C@H]1CCCc2oc(-c3ccnc(C4CC4)c3)nc21` [Compound I-121a, (S)—N-(2-(2-Cyclopropylpyridin-4-yl)-4,5,6,7-tetrahydrobenzo[d]oxazol-4-yl)-1-methyl-3-(trifluoromethyl)-1H-pyrazole-5-carboxamide], under 250 nM.
`COc1cc(-c2cc3n(n2)CC[C@H]3NC(=O)c2cc(C(F)(F)F)nn2C)ccn1` [Compound I-427b] returned a 50% inhibitory concentration (IC50) of over 1000 nM.
To `Cn1nc(C(F)(F)F)cc1C(=O)N[C@H]1CCCCn2nc(-c3ccnc(C(F)(F)F)c3)nc21` (single isomer, unassigned) [I-272*] belongs under 250 nM; to `CC(F)(F)c1cc(-c2nc3c(o2)CCC[C@@H]3NC(=O)c2cn(C(F)(F)F)nc2C(F)(F)F)ccn1` [Compound I-545a, (S)—N-(2-(2-(1,1-difluoroethyl)pyridin-4-yl)-4,5,6,7-tetrahydrobenzo[d]oxazol-4-yl)-1,3-bis(trifluoromethyl)-1H-pyrazole-4-carboxamide], under 250 nM; to `Cc1cccc(C(=O)N[C@H]2CCCCc3nn(-c4ccnc(C5CC5)c4)cc32)c1` [Compound I-58a], under 250 nM.
`O=C(N[C@H]1CCCn2nc(-c3ccnc(C(F)(F)F)c3)cc21)c1cccc(F)c1F` [Compound I-405a]: the half-maximal inhibitory concentration (IC50) was under 250 nM.
The same measure for `O=C(N[C@H]1CCn2nc(-c3ccnc(C(F)(F)F)c3)cc21)C12CC(CC(F)(F)F)(C1)C2` [Compound I-583a, (S)-3-(2,2,2-Trifluoroethyl)-N-(2-(2-(trifluoromethyl)pyridin-4-yl)-5,6-dihydro-4H-pyrrolo[1,2-b]pyrazol-4-yl)bicyclo[1.1.1]pentane-1-carboxamide]: under 250 nM; for `O=C(N[C@H]1CCCc2oc(-c3ccnc(C4CC4)c3)nc21)c1cc(C(F)(F)F)n(C(F)F)n1` [Compound I-130a, (S)-N-(2-(2-Cyclopropylpyridin-4-yl)-4,5,6,7-tetrahydrobenzo[d]oxazol-4-yl)-1-(difluoromethyl)-5-(trifluoromethyl)-1H-pyrazole-3-carboxamide]: under 250 nM; for `Cc1nn2ccccc2c1C(=O)N[C@H]1CCCn2nc(-c3ccnc(C(F)(F)F)c3)cc21` [Compound I-434a]: under 250 nM.
To `CCOc1cc(-n2cc3c(n2)CCCCC3NC(=O)c2cccc(C(F)(F)F)c2)ccn1` (racemic) [Compound I-61, (rac)-N-(2-(2-Ethoxypyridin-4-yl)-2,4,5,6,7,8-hexahydrocyclohepta[c]pyrazol-4-yl)-3-(trifluoromethyl)benzamide] belongs under 250 nM.
Take `CC(F)(F)c1cc(-c2nc3c(o2)CCC[C@H]3NC(=O)c2cccc(F)c2)ccn1` [Compound I-508b, (R)—N-(2-(2-(1,1-difluoroethyl)pyridin-4-yl)-4,5,6,7-tetrahydrobenzo[d]oxazol-4-yl)-3-fluorobenzamide]: the 50% inhibitory concentration (IC50) was over 1000 nM.
The same measure for `O=C(N[C@H]1CCc2nn(-c3ccnc(C(F)(F)F)c3)cc21)c1cncc(C(F)(F)F)n1` [Compound I-565a, (S)-6-(Trifluoromethyl)-N-(2-(2-(trifluoromethyl)pyridin-4-yl)-2,4,5,6-tetrahydrocyclopenta[c]pyrazol-4-yl)pyrazine-2-carboxamide]: under 250 nM; for `Cc1cnc(C(F)(F)F)cc1-c1cc2n(n1)CC[C@@H]2NC(=O)c1nc(C(F)(F)F)nn1C` [Compound I-141a, (S)-1-Methyl-N-(2-(5-methyl-2-(trifluoromethyl)pyridin-4-yl)-5,6-dihydro-4H-pyrrolo[1,2-b]pyrazol-4-yl)-3-(trifluoromethyl)-1H-1,2,4-triazole-5-carboxamide]: under 250 nM.
To `COc1cc(-c2nc3c(o2)[C@@H](NC(=O)c2ccnc(OC(F)(F)F)c2)CCC3)c(F)cn1` [Compound I-175a] belongs under 250 nM; to `O=C(N[C@H]1CCn2nc(-c3cc(C(F)(F)F)ncc3F)cc21)C12CC(CC(F)(F)F)(C1)C2` [Compound I-539a], under 250 nM; to `CCc1cc(C#N)cc(C(=O)N[C@H]2CCCCn3nc(-c4ccnc(C(F)(F)F)c4)cc32)c1` [Compound I-244a, (S)-3-Cyano-5-ethyl-N-(2-(2-(trifluoromethyl)pyridin-4-yl)-5,6,7,8-tetrahydro-4H-pyrazolo[1,5-a]azepin-4-yl)benzamide], under 250 nM.
To `Cn1nc(C(F)(F)F)cc1C(=O)N[C@@H]1CCCCn2nc(-c3cc(C(F)(F)F)ncc3F)cc21` [Compound I-476b] belongs 250 to 500 nM; to `O=C(N[C@H]1CCn2nc(-c3cc(C(F)(F)F)ncc3F)cc21)c1ccnc(OC(F)F)c1` [Compound I-547a, (S)-2-(Difluoromethoxy)-N-(2-(5-fluoro-2-(trifluoromethyl)pyridin-4-yl)-5,6-dihydro-4H-pyrrolo[1,2-b]pyrazol-4-yl)isonicotinamide], under 250 nM; to `N#Cc1cccc(C(=O)N[C@H]2CCCc3oc(-c4ccnc(C5CC5)c4)nc32)c1` [Compound I-232a, (S)-3-Cyano-N-(2-(2-cyclopropylpyridin-4-yl)-4,5,6,7-tetrahydrobenzo[d]oxazol-4-yl)benzamide], under 250 nM.
Consider `O=C(NC1CCCc2nn(-c3ccnc(C(F)(F)F)c3)cc21)c1ccc(C(F)(F)F)nc1` (racemic) [Compound I-19, (rac)-6-(Trifluoromethyl)-N-(2-(2-(trifluoromethyl)pyridin-4-yl)-4,5,6,7-tetrahydro-2H-indazol-4-yl)nicotinamide], for which the concentration for half-maximal inhibition (IC50) was in the range of 250 to 500 nM.
Compound `Cc1nn(C(F)(F)F)cc1C(=O)N[C@H]1CCn2nc(-c3ccnc(C(F)(F)F)c3)cc21` [Compound I-556a] showed a concentration for half-maximal inhibition (IC50) of under 250 nM.
The same measure for `CCOc1cc(-c2cc3n(n2)CC[C@@H]3NC(=O)c2cc(C(F)(F)F)nn2C)ccn1` [Compound I-254a, (S)-N-(2-(2-Ethoxypyridin-4-yl)-5,6-dihydro-4H-pyrrolo[1,2-b]pyrazol-4-yl)-1-methyl-3-(trifluoromethyl)-1H-pyrazole-5-carboxamide]: under 250 nM; for `Cc1cc(Cl)ccc1C(=O)N[C@@H]1CCc2nn(-c3ccnc(C(F)(F)F)c3)cc21` [Compound I-95b]: over 1000 nM; for `CCOc1cc(-n2cc3c(n2)CCCC[C@@H]3NC(=O)c2cc(C(F)(F)F)nn2C)ccn1` [Compound I-360a]: under 250 nM.
The same measure for `O=C(N[C@H]1CCCn2nc(-c3ccnc(C4CC4)c3)cc21)c1ccnc(C(F)(F)F)c1` [Compound I-496a, (S)-N-(2-(2-Cyclopropylpyridin-4-yl)-4,5,6,7-tetrahydropyrazolo[1,5-a]pyridin-4-yl)-2-(trifluoromethyl)isonicotinamide]: under 250 nM; for `O=C(N[C@H]1CCc2nn(-c3ccnc(C(F)(F)F)c3)cc21)c1cnc(C(F)(F)F)cn1` [Compound I-564a, (S)-5-(Trifluoromethyl)-N-(2-(2-(trifluoromethyl)pyridin-4-yl)-2,4,5,6-tetrahydrocyclopenta[c]pyrazol-4-yl)pyrazine-2-carboxamide]: under 250 nM.
In turn, `Cn1nc(C(F)(F)F)cc1C(=O)NC1(C)CCCc2nn(-c3ccnc(C(F)(F)F)c3)cc21` (centres unmarked) [Compound I-51] returned an IC50 of over 1000 nM.

The values above are taken from patent US20250313548A1 (Actio Biosciences, Inc., priority 2023, published 2025).
